For ten molecules, TGI results are on record in PubChem BioAssay (NCI).

Test systems include MDA-MB-435; NCI-H522 lung; U251 CNS; NCI-H460 lung; SK-OV-3 ovarian; SK-MEL-2 melanoma; SNB-19 CNS; COLO 205 colon; SNB-75 CNS; BT-549 breast; NCI-H226 lung; HCT-15 colon; MDA-MB-231 breast; UO-31 renal; SN12C renal; HCT-116 colon; OVCAR-8 ovarian.
Holding throughout (test): NCI tumour cell line growth inhibition, 48 h

SMILES strings stand for the structures.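 Test compounds were applied to cells in 96-well plates for 48 hours at 5 doses. TGI denotes the concentration required for complete inhibition of growth.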 Where only a bound is given, the exact number is not on record here.

For `COc1cc2c3c(cc(Cl)nc3c1OC)C(O)(CC(=O)c1ccccc1)C(=O)N2` (stereo not given), the TGI in the assay on MDA-MB-435 came to 3.53 µM; in the assay on NCI-H522 lung, 8.93 µM; in the assay with U251 CNS, 32.7 µM; with NCI-H460 lung, 43.1 µM; in the assay on SK-OV-3 ovarian, 32.2 µM; in the assay on SK-MEL-2 melanoma, 30 µM. Also, the TGI came out at 31.8 µM with SNB-19 CNS; 52.4 µM in the assay with COLO 205 colon; 28.6 µM in the assay on SNB-75 CNS; 30.4 µM with BT-549 breast; 41.3 µM with NCI-H226 lung; 50.9 µM with HCT-15 colon. In addition, the TGI came to 31.2 µM in the assay on MDA-MB-231 breast; 26.2 µM in the assay on UO-31 renal; 19.3 µM with SN12C renal; 16.2 µM with HCT-116 colon; 32.1 µM with OVCAR-8 ovarian.

As for `Nc1cc2c3c(cccc3c1)C(=O)N(c1ccc(OCCN3CCCC3)cc1)C2=O`, the TGI in the assay with MDA-MB-435 was 42.4 µM; in the assay with NCI-H522 lung, 30.7 µM; with U251 CNS, 64.6 µM; in the assay with NCI-H460 lung it was 23.7 µM; in the assay with SK-OV-3 ovarian it was 42 µM; in the assay on SK-MEL-2 melanoma, 38 µM. The TGI amounted to 41.9 µM in the assay with SNB-19 CNS; 35.2 µM in the assay on COLO 205 colon; 25.3 µM in the assay on SNB-75 CNS; 34.3 µM with BT-549 breast; 33.2 µM in the assay with NCI-H226 lung; 26.8 µM in the assay with HCT-15 colon. For the same molecule, the TGI in the assay with MDA-MB-231 breast was 57.1 µM; with UO-31 renal, 28.6 µM; in the assay on SN12C renal, more than 66.7 µM; in the assay with HCT-116 colon, 40.9 µM; with OVCAR-8 ovarian it was 35.8 µM.

As to `CC[C@@]1(O)C(=O)OCc2c1cc1n(c2=O)Cc2c-1nc1ccccc1c2/C=N\NC(=O)C(N)Cc1c[nH]c2ccccc12` (stereo not given in full), the TGI was more than 87.9 µM with MDA-MB-435; 32.3 µM with NCI-H522 lung; 5.16 µM with U251 CNS; 6.42 µM with NCI-H460 lung; more than 84 µM with SK-OV-3 ovarian; 36.3 µM in the assay on SK-MEL-2 melanoma. Besides, the TGI in the assay on SNB-19 CNS was 1.74 µM; in the assay on COLO 205 colon, more than 100 µM; in the assay with SNB-75 CNS, 1.83 µM; in the assay on BT-549 breast, more than 100 µM; in the assay with NCI-H226 lung, 11.9 µM; in the assay on HCT-15 colon, more than 100 µM. In addition, the TGI is more than 100 µM with MDA-MB-231 breast; 1.48 µM in the assay on UO-31 renal; more than 95.3 µM with SN12C renal; 15.5 µM in the assay on HCT-116 colon; 25 µM in the assay with OVCAR-8 ovarian.

`CC(C)NC(=O)OCc1c(COC(=O)NC(C)C)c(-c2cc[n+](COC(=O)C3CCCCC3)cc2)n2c1CCC2`: the TGI with MDA-MB-435, with NCI-H522 lung, with U251 CNS, in the assay with NCI-H460 lung, in the assay with SK-OV-3 ovarian and in the assay with SK-MEL-2 melanoma was more than 100 µM in each case. The TGI in the assay with SNB-19 CNS, in the assay with COLO 205 colon, in the assay with SNB-75 CNS, with BT-549 breast, with NCI-H226 lung and in the assay with HCT-15 colon was more than 100 µM throughout. Moreover, the TGI with MDA-MB-231 breast, in the assay on UO-31 renal, with SN12C renal, in the assay on HCT-116 colon and with OVCAR-8 ovarian was more than 100 µM in each case.

Turning to `Cc1ccc(S[C@@H](C)[C@@](O)(C(N)=O)c2ccccc2)cc1`, the TGI is more than 100 µM with MDA-MB-435; 33 µM in the assay on NCI-H522 lung; more than 100 µM in the assay with U251 CNS; more than 100 µM in the assay with NCI-H460 lung; more than 100 µM with SK-OV-3 ovarian; more than 100 µM in the assay on SK-MEL-2 melanoma. Besides, the TGI with SNB-19 CNS, in the assay on COLO 205 colon, with SNB-75 CNS, in the assay with BT-549 breast, in the assay on NCI-H226 lung and in the assay on HCT-15 colon was more than 100 µM each time. The TGI with MDA-MB-231 breast is 46 µM; in the assay with UO-31 renal, 30.2 µM; with SN12C renal, more than 100 µM; with HCT-116 colon, more than 100 µM; in the assay with OVCAR-8 ovarian it was more than 100 µM.

For the molecule `COc1ccccc1NC(=S)N/N=C/c1cccc(C)n1`, the TGI is more than 100 µM with MDA-MB-435; more than 54.8 µM in the assay on NCI-H522 lung; more than 87.1 µM with U251 CNS; more than 85.5 µM in the assay on NCI-H460 lung; more than 44.4 µM in the assay with SK-OV-3 ovarian; more than 100 µM with SK-MEL-2 melanoma. In addition, the TGI is more than 100 µM with SNB-19 CNS; more than 100 µM in the assay on COLO 205 colon; 53.5 µM with SNB-75 CNS; more than 100 µM in the assay with BT-549 breast; 37.3 µM with NCI-H226 lung; more than 100 µM in the assay on HCT-15 colon. Besides, the TGI in the assay on MDA-MB-231 breast was more than 100 µM; in the assay on UO-31 renal, more than 39.1 µM; in the assay with SN12C renal it was more than 93.8 µM; in the assay with HCT-116 colon it was more than 100 µM; in the assay on OVCAR-8 ovarian, more than 52.3 µM.

Turning to `O=c1[nH]nc(-c2ccccc2)n1-n1cnnc1`, the TGI in the assay with MDA-MB-435, with NCI-H522 lung, in the assay with U251 CNS, in the assay on NCI-H460 lung, in the assay on SK-OV-3 ovarian and in the assay on SK-MEL-2 melanoma was more than 100 µM each time. In addition, the TGI with SNB-19 CNS, in the assay on COLO 205 colon, with SNB-75 CNS, with BT-549 breast, in the assay on NCI-H226 lung and in the assay on HCT-15 colon was more than 100 µM throughout. Also, the TGI in the assay with MDA-MB-231 breast, with UO-31 renal, in the assay with SN12C renal, in the assay on HCT-116 colon and in the assay with OVCAR-8 ovarian was more than 100 µM throughout.

On to `CN(C)CCNC(=O)c1c(O)ccc2c1c1c(n2CCc2ccccc2)C(=O)c2ccccc2C1=O`, for which the TGI was determined as 5.08 µM in the assay on MDA-MB-435; 23 µM with NCI-H522 lung; 13.9 µM with U251 CNS; 11.4 µM with NCI-H460 lung; 31.5 µM in the assay with SK-OV-3 ovarian; 10.7 µM in the assay with SK-MEL-2 melanoma. Moreover, the TGI with SNB-19 CNS amounted to 23.8 µM; with COLO 205 colon, 34.4 µM; in the assay with SNB-75 CNS, 28.1 µM; in the assay on BT-549 breast, 32.6 µM; in the assay with NCI-H226 lung, 35.2 µM; in the assay on HCT-15 colon it was 15.6 µM. For the same molecule, the TGI in the assay with MDA-MB-231 breast was 15 µM; in the assay with UO-31 renal, 13.8 µM; in the assay with SN12C renal, 20 µM; in the assay with HCT-116 colon, 10.5 µM; in the assay on OVCAR-8 ovarian, 23.4 µM.

As for `Cc1ccc(NC(=O)CC(=O)n2nc(C)c(N=Nc3cccc(C)c3)c2C)cc1`, the TGI in the assay on MDA-MB-435, in the assay with NCI-H522 lung, with U251 CNS, with NCI-H460 lung, with SK-OV-3 ovarian and in the assay on SK-MEL-2 melanoma was more than 100 µM in each case. Also, the TGI with SNB-19 CNS was more than 100 µM; in the assay on COLO 205 colon, more than 100 µM; in the assay with SNB-75 CNS, 62.3 µM; in the assay on BT-549 breast it was more than 100 µM; in the assay with NCI-H226 lung, more than 100 µM; in the assay with HCT-15 colon, more than 100 µM. For the same molecule, the TGI with MDA-MB-231 breast, with UO-31 renal, in the assay on SN12C renal, with HCT-116 colon and in the assay on OVCAR-8 ovarian was more than 100 µM each time.

As for `C=C1C(=O)OC2C3OC(C)(CCC(O)C3COC(C)=O)CC(OC(=O)/C(=C/C)COC(C)=O)C12` (stereo not given), the TGI amounted to 12.6 µM in the assay on MDA-MB-435; 0.0749 µM in the assay with NCI-H522 lung; 2.88 µM in the assay with U251 CNS; 2.22 µM in the assay with NCI-H460 lung; 19.6 µM in the assay with SK-OV-3 ovarian; 6.96 µM in the assay on SK-MEL-2 melanoma. Moreover, the TGI with SNB-19 CNS was 18.3 µM; with COLO 205 colon, 0.246 µM; with SNB-75 CNS it was 18.1 µM; in the assay with BT-549 breast it was 0.722 µM; in the assay with NCI-H226 lung it was 8.4 µM; with HCT-15 colon, 0.141 µM. Besides, the TGI was determined as 1.16 µM in the assay on MDA-MB-231 breast; 0.807 µM in the assay with UO-31 renal; 1.98 µM with SN12C renal; 0.216 µM with HCT-116 colon; 20 µM in the assay on OVCAR-8 ovarian.
